Read-outs that look alike come from different tables or passages of the source.
B1: ScCD6: novel PL-6 family alginate lyase from Streptomyces coelicolor A3(2), 493 amino acids, SEQ ID NO: 1 (protein)
chain: MNRPRLSTYAAITVAAITIAALTTAASALASTGDTSSRTPSGNSTPQANATIVNVSSSTQLTTAMANAVAGQTIVLANGSYSIGKLNAKNGTSSAPITIMAAQQGKAIITGGQLEVLSSSYVTFSGLKWTNSNTLKITSSHHIRLTRNHFRLTESSSLKWIIIQGANSHHNRIDHNLFEEKHQLGNFITIDGSSTQQSQYDLIDYNHFRNIGPRATNEMEAIRVGWSAISKSDGFTTVENNLFENCDGDPEIVSVKSNANTVRYNTFRTSQGSVSLRHGNRSQVHGNFFFGGGKTGTGGVRVYGQDHKIYNNHFEGLTGTGYDAALQLDGGDVDTSGALSSHWRVYRATAVHNTFVNNVSNIEIGANYSLAPVDSLVADNIVVGSSGKLFNELKMPKNMTYAGNIGWPTGSATIGITTGVRTVNPLLAKQGEVYRLGTGSPAVNTASGSYSFLADDMDGQSRSGTADVGADELSTGTVVHKPLNSADVGISAP
modifications: Streptomyces coelicolor

Key:
[1] = system: ScCD6; assay: Effects of metal ions and chemical reagents on ScCD6 enzyme activity; format: biochemical, Streptomyces coelicolor A3(2); settings: ScCD6 activity with metal ion/chemical reagent; for Relative enzyme activity %: control = 100.00
Description: (§1) Using 0.3% (w/v) sodium alginate as the substrate, in a 200 μL reaction system, after reaction for 20 min and boiling 2 min for inactivating, DNS method was used to determine the content of reducing sugar in the product to characterize the enzyme activity.
(§2) To determine the temperature stability, ScCD6 was incubated at 30° C., 40° C., 50° C. and 60° C., and its residual enzyme activity was determined by sampling at different times. When determining the stabilities of the enzyme under different pH, the enzyme was stored in buffer solution with pH 7.0, 8.0, 9.0 and 10.0 at 4° C., and the residual enzyme activity was determined by sampling at different times. […] In order to investigate the substrate specificity of ScCD6, sodium alginate, poly M and poly G were used as substrates and reacted at 40° C. for 20 min. The content of reducing sugar was determined by DNS method.

[2] = Product analysis of polysaccharide degradation by ScCD6 (HPLC); format: biochemical
Description: Further, the concentration of substrate (sodium alginate, poly M, poly G) in the reaction can be 0.3% (w/v). An amount of added enzyme can be 0.6 U. A reaction can be carried out at 30° C., pH 7.0 for 12 hours. The obtained products can be used for HPLC tests.
Using 0.3% (w/v) sodium alginate, poly M and poly G substrates, in a 200 μL reaction system, 0.6 U alginate lyase ScCD6 was added and reacted at 30° C. and pH 7.0 for 12 hours. The reaction product was boiled for 10 min and centrifuged at 10,000 rpm for 10 min to remove the proteins and other impurities in the system. The supernatant was collected and passed through a 0.22 μm filter membrane for HPLC test. The HPLC conditions were as follows: Superdex™ 30 Increase 30/100 Gel column, 0.2 M NH4HCO3 as mobile phase, flow rate of 0.4 mL/min, room temperature (˜25° C.), loading sample volume of 100 μL, UV detection at 235 nm.

[3] = Substrate specificity of ScCD6 (DNS method); format: biochemical; settings: sodium alginate, poly M, poly G; 40° C. for 20 min
Description: as §2

[4] = ScCD6 enzyme activity, reducing sugar by DNS method (optimum temperature and pH); format: biochemical
Description: as §1, §2

[5] = Description: as §1, §2

Molecule | effect on the enzyme activity [1] | Relative enzyme activity % [1] | further results
[Co+2] [Co^2+] | promote the enzyme activity | 106.89% | –
O=C([O-])CN(CCN(CC(=O)[O-])CC(=O)O)CC(=O)O.[Na+].[Na+] [Na2EDTA] | lose the enzyme activity | 1.03% | –
[Ba+2] [Ba^2+] | promote the enzyme activity | 108.96% | –
[Ni+2] [Ni^2+] | inhibit the enzyme activity | 85.86% | –
[Ca+2] [Ca^2+] | little effects on the enzyme activity | 101.76% | –
[Cu+2] [Cu^2+] | inhibit the enzyme activity | 86.33% | –
[Fe+3] [Fe^3+] | promote the enzyme activity | 110.41% | –
[Na+] [Na^+] | little effects on the enzyme activity | 101.15% | –
[K+] [K^+] | little effects on the enzyme activity | 98.28% | –
[Mg+2] [Mg^2+] | inhibit the enzyme activity | 91.64% | –
[Zn+2] [Zn^2+] | promote the enzyme activity | 109.04% | –
CCCCCCCCCCCCOS(=O)(=O)[O-].[Na+] [SDS] | inhibit the enzyme activity | 92.02% | –
[Mn+2] [Mn^2+] | promote the enzyme activity | 110.91% | –
B1 | – | – | degradation of polysaccharides ([2]; 0.3% (w/v) sodium alginate, poly M, poly G, 0.6 U, 30° C., pH 7.0, 12 hours, HPLC): could degrade all three kinds of polysaccharides; mode of digestion ([2]; HPLC product analysis): endo-type alginate lyase; polymerization degree of unsaturated oligosaccharide products ([2]; degradation of sodium alginate): 2-8; unsaturated disaccharides as share of the total unsaturated oligosaccharide products ([2]; degradation of sodium alginate): about 70%; substrate specificity [3]: poly M specific alginate lyase; optimum pH ([4]; 50° C., pH 3.0-10.0, 0.3% (w/v) sodium alginate): 9.0; optimum reaction temperature ([4]; pH 7.0, temperature range of 30-100° C., 0.3% (w/v) sodium alginate): 50 °C; enzyme activity retained ([5]; 4° C. for 4 days at pH 7.0-10.0): 80%; enzyme activity retained ([5]; 30° C. for 24 hours): 80%
